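Cells were grown in 96-well plates and exposed to each compound for 48 hours at five concentrations; endpoints were interpolated linearly between bracketing concentrations, or set to the highest concentration if not reached. At the GI50, growth is halved. The concentration for full growth arrest is given as TGI.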
Legend:
Experiment in all cases: inhibition of tumour cell growth, NCI panel, 48 h
HS 578T breast = system: HS 578T breast
UACC-62 melanoma = system: UACC-62 melanoma
MALME-3M melanoma = system: MALME-3M melanoma
KM12 colon = system: KM12 colon
A549 NSCLC = system: A549 NSCLC
COLO 205 colon = system: COLO 205 colon
NCI-H460 lung = system: NCI-H460 lung
U251 CNS = system: U251 CNS
HCT-116 colon = system: HCT-116 colon
SK-MEL-5 melanoma = system: SK-MEL-5 melanoma

Compound	GI50 (HS 578T breast)	TGI (HS 578T breast)	GI50 (UACC-62 melanoma)	TGI (UACC-62 melanoma)	GI50 (MALME-3M melanoma)	TGI (MALME-3M melanoma)	GI50 (KM12 colon)	TGI (KM12 colon)	GI50 (A549 NSCLC)	TGI (A549 NSCLC)	GI50 (COLO 205 colon)	TGI (COLO 205 colon)	GI50 (NCI-H460 lung)	TGI (NCI-H460 lung)	GI50 (U251 CNS)	TGI (U251 CNS)	GI50 (HCT-116 colon)	TGI (HCT-116 colon)	GI50 (SK-MEL-5 melanoma)	TGI (SK-MEL-5 melanoma)
COc1cccc(/C=C/C(=O)c2cc3c(N)c(C(=O)Nc4ccccc4)sc3nc2C)c1	1.92 µM	> 50 µM	0.943 µM	2.19 µM	2.03 µM	15 µM	0.988 µM	2.23 µM	1.51 µM	6.23 µM	1.54 µM	4.71 µM	1.1 µM	2.47 µM	0.897 µM	1.72 µM	0.838 µM	1.58 µM	1.48 µM	5.53 µM
NS(=O)(=O)c1ccc(NC(=O)Nc2cccc3ccccc23)cc1	–	> 100 µM	–	69.4 µM	–	> 100 µM	–	> 100 µM	–	> 100 µM	–	> 100 µM	–	> 100 µM	–	36.2 µM	–	> 100 µM	–	> 100 µM
c1ccc(OCC[P+](c2ccccc2)(c2ccccc2)c2ccccc2)cc1	2.27 µM	16.5 µM	0.678 µM	8.99 µM	1.48 µM	12.9 µM	1.31 µM	8.84 µM	2.96 µM	82.5 µM	0.549 µM	2.02 µM	1.35 µM	10.4 µM	0.99 µM	13 µM	0.491 µM	11.3 µM	0.416 µM	1.56 µM
OCC1OC(N2CCN(C3OC(CO)C(O)C(O)C3O)CC2)C(O)C(O)C1O (stereo not given)	–	> 100 µM	–	> 100 µM	–	> 100 µM	–	> 100 µM	–	> 100 µM	–	> 100 µM	–	> 100 µM	–	> 100 µM	–	> 100 µM	–	> 100 µM
CN(N=O)N1C(=O)SCC(c2ccccc2)(c2ccccc2)C1=O	–	> 100 µM	–	> 100 µM	–	> 100 µM	–	> 100 µM	–	> 100 µM	–	> 100 µM	–	> 100 µM	–	> 100 µM	–	> 100 µM	–	> 100 µM
Nc1ncnc2c1ncn2Cc1ccc(CCl)cc1	25.9 µM	58.1 µM	19.6 µM	34.6 µM	19 µM	43.4 µM	13.6 µM	37.2 µM	17.1 µM	35.1 µM	14.2 µM	31.4 µM	17 µM	41.1 µM	21.9 µM	40.6 µM	36.2 µM	> 100 µM	15.2 µM	28.5 µM
O=C(Nc1ccn(C2CCC(COC(c3ccccc3)(c3ccccc3)c3ccccc3)O2)c(=O)n1)c1ccccc1 (stereo not given)	–	9.05 µM	–	16.7 µM	–	9.91 µM	–	14.6 µM	–	13 µM	–	4.2 µM	–	10.4 µM	–	13.8 µM	–	11.9 µM	–	6.41 µM
O=C(O)[C@@H](Cc1ccccc1)NS(=O)(=O)c1ccc(-c2ccccc2)cc1	> 100 µM	> 100 µM	> 100 µM	> 100 µM	> 100 µM	> 100 µM	> 100 µM	> 100 µM	> 100 µM	> 100 µM	> 100 µM	> 100 µM	> 100 µM	> 100 µM	> 100 µM	> 100 µM	> 100 µM	> 100 µM	> 100 µM	> 100 µM
O=C(Nc1ccc(-c2cn3ccccc3n2)cc1)c1cc(Br)ccc1O	–	> 100 µM	–	> 100 µM	–	> 100 µM	–	> 100 µM	–	> 100 µM	–	> 100 µM	–	> 100 µM	–	> 100 µM	–	> 100 µM	–	> 100 µM
O=C(COc1ccc(Cl)cc1Cl)NNc1ccc([N+](=O)[O-])cc1	25.6 µM	95.4 µM	27.7 µM	> 100 µM	23.6 µM	57.1 µM	> 100 µM	> 100 µM	> 100 µM	> 100 µM	95.7 µM	> 100 µM	> 100 µM	> 100 µM	20.1 µM	43.6 µM	65.3 µM	> 100 µM	> 100 µM	> 100 µM
Nc1cc2c3ccccc3ccc2c2ccccc12	> 100 µM	> 100 µM	> 100 µM	> 100 µM	> 100 µM	> 100 µM	> 100 µM	> 100 µM	23.9 µM	> 100 µM	> 100 µM	> 100 µM	7.63 µM	> 100 µM	21.4 µM	> 100 µM	13.4 µM	> 100 µM	16.7 µM	> 100 µM
COc1ccc(C2CC(=O)Nc3c2c(C)nn3-c2nc3ccccc3[nH]2)cc1OC (stereo not given)	4.49 µM	> 100 µM	3.15 µM	12.8 µM	4.94 µM	29 µM	3.7 µM	14.1 µM	3.82 µM	17.8 µM	9.36 µM	40.7 µM	3.46 µM	16.2 µM	4.58 µM	19.7 µM	3.31 µM	14.9 µM	2.42 µM	6.17 µM
C=C1[C@H](O)C[C@@H](C(C)C(O)CC=C(C)C)[C@@H](O)[C@@H]2C(C)=CC[C@@H]12 (stereo not given in full)	> 100 µM	> 100 µM	94.8 µM	> 100 µM	> 100 µM	> 100 µM	> 100 µM	> 100 µM	> 100 µM	> 100 µM	> 100 µM	> 100 µM	> 100 µM	> 100 µM	> 100 µM	> 100 µM	> 100 µM	> 100 µM	> 100 µM	> 100 µM

Source: PubChem BioAssay (NCI)
